Source: patent publication US8975406B2, “Compound useful for the treatment of degenerative and inflammatory diseases” (Galapagos N.V., priority 2011, dated 2015)

Experiments:
Recombinant human JAK1 = target: T1, Recombinant human JAK1 (Homo sapiens, UniProt P23458); test: JAK1 Ulight-JAK1 peptide assay; format: biochemical; conditions: Ulight-JAK1(tyr1023) peptide, 7 μM ATP
T1 construct: catalytic domain (amino acids 866-1154; catalog number PV4774); purchased Invitrogen PV4774
Description: Recombinant human JAK1 (catalytic domain, amino acids 866-1154; catalog number PV4774) was purchased from Invitrogen. 1 ng of JAK1 was incubated with 20 nM Ulight-JAK1(tyr1023) peptide (Perkin Elmer catalog number TRF0121) in kinase reaction buffer (25 mM MOPS pH6.8, 0.01% Brij-35, 5 mM MgCl2, 2 mM DTT, 7 μM ATP) with or without 4 μL containing test compound or vehicle (DMSO, 1% final concentration), in a total volume of 20 μL, in a white 384 Opti plate (Perkin Elmer, catalog number 6007290). After 60 min at room temperature, reactions were stopped by adding 20 μL/well of detection mixture (1× detection buffer (Perkin Elmer, catalog number CR97-100C), 0.5 nM Europium-anti-phosphotyrosine (PT66) (Perkin Elmer, catalog number AD0068), 10 mM EDTA). Readout is performed using the Envision with excitation at 320 nm and measuring emission at 615 nm (Perkin Elmer). Kinase activity was calculated by subtracting relative fluorescence units (RFU) obtained in the presence of a positive control inhibitor (10 μM staurosporine) from RFU obtained in the presence of vehicle. The ability of a test compound to inhibit this activity was determined as: Percentage inhibition=((RFU determined for sample with test compound present−RFU determined for sample with positive control inhibitor)divided by(RFU determined in the presence of vehicle−RFU determined for sample with positive control inhibitor))*100.
(§1) Dose dilution series were prepared for the compounds enabling the testing of dose-response effects in the JAK1 assay and the calculation of the IC50 for the compound. Each compound is routinely tested at concentration of 20 μM followed by a ⅕ serial dilution, 10 points in a final concentration of 1% DMSO. When potency of compound series increases, more dilutions are prepared and/or the top concentration are lowered (e.g. 5 μM, 1 μM). The data are expressed as the average IC50 from the assays±standard error of the mean.

Recombinant human JAK2 = target: T2, Recombinant human JAK2 (Homo sapiens, UniProt O60674); test: JAK2 Ulight-JAK1 peptide assay; format: biochemical; conditions: Ulight-JAK1(tyr1023) peptide, 7.5 μM ATP
T2 construct: catalytic domain (amino acids 808-1132; catalog number PV4210); GST; purchased Invitrogen PV4210
Description: Recombinant human JAK2 (catalytic domain, amino acids […]; catalog number PV4210) was purchased from Invitrogen. 0.0125 mU of JAK2 was incubated with 25 nM Ulight-JAK1(tyr1023) peptide (Perkin Elmer catalog number TRF0121) in kinase reaction buffer (25 mM HEPES pH7.0, 0.01% Triton X-100, 7.5 mM MgCl2, 2 mM DTT, 7.5 μM ATP) with or without 4 μL containing test compound or vehicle (DMSO, 1% final concentration), in a total volume of 20 μL, in a white 384 Opti plate (Perkin Elmer, catalog number 6007290). After 60 min at room temperature, reactions were stopped by adding 20 μL/well of detection mixture (1× detection buffer (Perkin Elmer, catalog number CR97-100C), 0.5 nM Europium-anti-phosphotyrosine (PT66) (Perkin Elmer, catalog number AD0068), 10 mM EDTA). Readout is performed using the Envision with excitation at 320 nm and measuring emission at 615 nm (Perkin Elmer). Kinase activity was calculated by subtracting relative fluorescence units (RFU) obtained in the presence of a positive control inhibitor (10 μM staurosporine) from RFU obtained in the presence of vehicle. The ability of a test compound to inhibit this activity was determined as: Percentage inhibition=((RFU determined for sample with test compound present−RFU determined for sample with positive control inhibitor)divided by(RFU determined in the presence of vehicle−RFU determined for sample with positive control inhibitor))*100.
as §1, with “each compound” for “the compounds”, “JAK2” for “JAK1”

[1] = system: JAK-STAT signalling in HeLa cells; test: JAK-STAT signalling assay (pSTAT1(2)-luciferase reporter, OSM-triggered HeLa cells); format: cell-based; conditions: human OSM 33 ng/mL
Description: HeLa cells were maintained in Dulbecco's Modified Eagle's Medium (DMEM) containing 10% heat inactivated fetal calf serum, 100 U/mL penicillin and 100 μg/mL streptomycin. HeLa cells were used at 70% confluence for transfection. 20,000 cells in 87 μL cell culture medium were transiently transfected with 40 ng pSTAT1(2)-luciferase reporter (Panomics), 8 ng of LacZ reporter as internal control reporter and 52 ng of pBSK using 0.32 μL Jet-PEI (Polyplus) as transfection reagent per well in 96-well plate format. After overnight incubation at 37° C., 5% CO2, transfection medium was removed. 81 μL of DMEM+1.5% heat inactivated fetal calf serum was added. 9 μL compound at 10× concentration was added for 60 min and then 10 μL of human OSM (Peprotech) at 33 ng/mL final concentration.
All compounds were tested in duplicate starting from 20 μM followed by a ⅓ serial dilution, 8 doses in total (20 μM-6.6 μM-2.2 μM-740 nM-250 nM-82 nM-27 nM-9 nM) in a final concentration of 0.2% DMSO.
After overnight incubation at 37° C., 5% CO2 cells were lysed by adding 100 μL lysis buffer/well (PBS, 0.9 mM CaCl2, 0.5 mM MgCl2, 10% Trehalose, 0.05% Tergitol NP9, 0.3% BSA).
40 μL of cell lysate was used to read β-galactosidase activity by adding 180 μL β-Gal solution (30 μl ONPG 4 mg/mL+150 μL β-Galactosidase buffer (0.06 M Na2HPO4, 0.04 M NaH2PO4, 1 mM MgCl2)) for 20 min. The reaction was stopped by addition of 50 μL Na2CO3 1 M. Absorbance was read at 405 nm.
Luciferase activity was measured using 40 μL cell lysate plus 40 μL of Steadylite® as described by the manufacturer (Perkin Elmer), on the Envision (Perkin Elmer).
Omitting OSM was used as a positive control (100% inhibition). As negative control 0.5% DMSO (0% inhibition) was used. The positive and negative controls were used to calculate z′ and ‘percent inhibition’ (PIN) values. Percentage inhibition=((fluorescence determined in the presence of vehicle−fluorescence determined for sample with test compound present)divided by(fluorescence determined in the presence of vehicle−fluorescence determined for sample without trigger))*100.
PIN values were plotted for compounds tested in dose-response and EC50 values were derived.

T1 sequence (P23458 866-1154): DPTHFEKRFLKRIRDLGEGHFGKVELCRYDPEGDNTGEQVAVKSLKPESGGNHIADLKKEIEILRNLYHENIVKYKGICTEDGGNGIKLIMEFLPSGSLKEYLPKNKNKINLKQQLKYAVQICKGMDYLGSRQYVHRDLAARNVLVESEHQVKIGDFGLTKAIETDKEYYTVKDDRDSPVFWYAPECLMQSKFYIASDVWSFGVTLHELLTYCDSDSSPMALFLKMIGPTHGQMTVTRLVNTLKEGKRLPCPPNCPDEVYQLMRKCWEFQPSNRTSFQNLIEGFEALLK
T2 sequence (O60674 808-1132): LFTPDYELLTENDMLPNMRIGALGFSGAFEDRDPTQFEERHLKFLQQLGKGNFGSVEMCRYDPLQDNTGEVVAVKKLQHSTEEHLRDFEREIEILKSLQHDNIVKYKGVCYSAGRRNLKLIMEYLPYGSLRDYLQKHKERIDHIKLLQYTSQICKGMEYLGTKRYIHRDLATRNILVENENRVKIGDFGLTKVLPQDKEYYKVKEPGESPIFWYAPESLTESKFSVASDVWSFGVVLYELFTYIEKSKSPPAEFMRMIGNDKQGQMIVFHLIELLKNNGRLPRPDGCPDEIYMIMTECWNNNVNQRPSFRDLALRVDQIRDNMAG

IC50 (Recombinant human JAK1) [nM] | IC50 (Recombinant human JAK2) [nM] | IC50 [1] [nM] | Structure (SMILES)
0.01 to 100 | 0.01 to 100 | 101 to 500 | O=C(Nc1cc2c(-c3ccc(C(=O)N4CCCCC4)cc3)cccn2n1)C1CC1 [Compound 14, Cyclopropanecarboxylic acid {4-[4-(piperidine-1-carbonyl)-phenyl]-pyrazolo[1,5-a]pyridin-2-yl}-amide]
0.01 to 100 | 0.01 to 100 | 101 to 500 | CS(=O)(=O)N1CCN(Cc2ccc(-c3cccn4nc(NC(=O)C5CC5)cc34)cc2)CC1 [Compound 15, N-(4-(4-((4-(methylsulfonyl)piperazin-1-yl)methyl)phenyl)pyrazolo[1,5-a]pyridin-2-yl)cyclopropanecarboxamide]
0.01 to 100 | 0.01 to 100 | 501 to 1000 | CS(=O)(=O)C1CCN(Cc2ccc(-c3cccn4nc(NC(=O)C5CC5)cc34)cc2)CC1 [Compound 17, N-(4-(4-((4-(methylsulfonyl)piperidin-1-yl)methyl)phenyl)pyrazolo[1,5-a]pyridin-2-yl)cyclopropanecarboxamide]
0.01 to 100 | 0.01 to 100 | 101 to 500 | CS(=O)(=O)C1CCN(Cc2ccc(-c3cccn4nc(NC(=O)C5CC5)cc34)cc2F)CC1 [Compound 18, N-(4-(3-fluoro-4-((4-(methylsulfonyl)piperidin-1-yl)methyl)phenyl)pyrazolo[1,5-a]pyridin-2-yl)cyclopropanecarboxamide]
0.01 to 100 | 501 to 1000 | > 1000 | CS(=O)(=O)C1CCN(Cc2ccc(-c3cccn4nc(NC(=O)C5CC5)c(Cl)c34)cc2)CC1 [Compound 19, N-(3-chloro-4-(4-((4-(methylsulfonyl)piperidin-1-yl)methyl)phenyl)pyrazolo[1,5-a]pyridin-2-yl)cyclopropanecarboxamide]
0.01 to 100 | 101 to 500 | > 1000 | CS(=O)(=O)C1CCN(Cc2ccc(-c3cccn4nc(NC(=O)C5CC5)c(Cl)c34)cc2F)CC1 [Compound 20, N-(3-chloro-4-(3-fluoro-4-((4-(methylsulfonyl)piperidin-1-yl)methyl)phenyl)pyrazolo[1,5-a]pyridin-2-yl)cyclopropanecarboxamide]
0.01 to 100 | 0.01 to 100 | 501 to 1000 | CC(=O)Nc1cc2c(-c3ccc(CN4CCN(S(C)(=O)=O)CC4)c(F)c3)cccn2n1 [Compound 21]
0.01 to 100 | 101 to 500 | > 1000 | CS(=O)(=O)N1CCN(Cc2ccc(-c3cccn4nc(NC(=O)C5CC5)cc34)cn2)CC1 [Compound 23, N-(4-(6-((4-(methylsulfonyl)piperazin-1-yl)methyl)pyridin-3-yl)pyrazolo[1,5-a]pyridin-2-yl)cyclopropanecarboxamide]
0.01 to 100 | 501 to 1000 | > 1000 | CC(=O)Nc1cc2c(-c3ccc(CN4CCN(S(C)(=O)=O)C[C@H]4C)cc3)cccn2n1 [Compound 24, (R)-N-(4-(4-((2-methyl-4-(methylsulfonyl)piperazin-1-yl)methyl)phenyl)pyrazolo[1,5-a]pyridin-2-yl)acetamide]
0.01 to 100 | 0.01 to 100 | 501 to 1000 | CC(=O)Nc1cc2c(-c3ccc(CN4CCN(S(C)(=O)=O)CC4)cc3)cccn2n1 [Compound 25, N-(4-(4-((4-(methylsulfonyl)piperazin-1-yl)methyl)phenyl)pyrazolo[1,5-a]pyridin-2-yl)acetamide]
101 to 500 | 101 to 500 | > 1000 | CC(=O)Nc1cc2c(-c3cnc(CN4CCN(S(C)(=O)=O)CC4)c(F)c3)cccn2n1 [Compound 26, N-(4-(5-fluoro-6-((4-(methylsulfonyl)piperazin-1-yl)methyl)pyridin-3-yl)pyrazolo[1,5-a]pyridin-2-yl)acetamide]
0.01 to 100 | 0.01 to 100 | 101 to 500 | CC(=O)Nc1cc2c(-c3ccc(CN4CCS(=O)(=O)CC4)c(F)c3)cccn2n1 [Compound 27, N-{4-[4-(1,1-Dioxo-thiomorpholin-4-ylmethyl)-3-fluoro-phenyl]-pyrazolo[1,5-a]pyridin-2-yl}-acetamide]
0.01 to 100 | 0.01 to 100 | > 1000 | CC(=O)Nc1cc2c(-c3ccc(CN4CCC(S(C)(=O)=O)CC4)c(F)c3)cccn2n1 [Compound 29, N-(4-(3-fluoro-4((4-(methylsulfonyl)piperidin-1-yl)methyl)phenyl)pyrazolo[1,5-a]pyridin-2-yl)acetamide]
0.01 to 100 | 0.01 to 100 | 501 to 1000 | CC(=O)Nc1cc2c(-c3ccc(CC(=O)N4CC(F)(F)C4)cc3)cccn2n1 [Compound 34, N-(4-(4-(2-(3,3-difluoroazetidin-1-yl)-2-oxoethyl)phenyl)pyrazolo[1,5-a]pyridin-2-yl)acetamide]
0.01 to 100 | 0.01 to 100 | 101 to 500 | C[C@@H]1CN(S(C)(=O)=O)CCN1Cc1ccc(-c2cccn3nc(NC(=O)C4CC4)cc23)cc1 [Compound 44, (R)-N-(4-(4-((2-methyl-4-(methylsulfonyl)piperazin-1-yl)methyl)phenyl)pyrazolo[1,5-a]pyridin-2-yl)cyclopropanecarboxamide]
0.01 to 100 | 0.01 to 100 | 501 to 1000 | CC(=O)Nc1cc2c(-c3ccc(C(C)N4CCN(S(C)(=O)=O)CC4)cc3)cccn2n1 (stereo not drawn) [Compound 45, N-(4-(4-(1-(4-(methylsulfonyl)piperazin-1-yl)ethyl)phenyl)pyrazolo[1,5-a]pyridin-2-yl)acetamide]
